Values quoted from earlier work, collected in USRE41289E1, “Ultrashort acting hypnotic barbiturates” (ARYx Therapeutics, Inc., priority 2000, dated 2010).

Conditions: in vivo

CN1C(=O)NC(=O)C(C)(C2=CCCCC2)C1=O (stereo not shown) [hexobarbital]
half-life of elimination: 2.7 to 7 h
